The values below are quoted from earlier work in patent US12390476B2, “Multiphasic contraceptive regimen for oral combination drug formulation of progestin and estrogen” (priority 2011, dated 2025).

For this data set the following is noted: compared to gestodene, desogestrel and drospirenone.

Each structure is given as a SMILES string.

As for `C#C[C@]1(O)CC[C@H]2[C@@H]3CCC4=CC(=O)CC[C@@H]4[C@H]3CC[C@@]21CC` [LNG, levonorgestrel], the “incidence of venous thromboembolism (VTE)” value was “lowest incidence”.
